# From the supplement of paper PMC10307832
# How the values were obtained:
# Experiment in all cases: relative viability (nuclei count vs DMSO), 5 days (fraction); higher = more cells survive
# UMC-11 = tested on: UMC-11
# Summary of the method: (§1)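 After 5 days of treatment, lung cancer cells in 1536-well plates were fixed and stained in a single step (final 0.05% Triton X-100, 1% formaldehyde, 1 ug/ml Hoechst) and their nuclei counted on 4× images. Treatment had been applied by pin tool the day after seeding as one drug alone or as a fixed anchor-drug dose with five library-drug doses (not always all listed) in √10 steps. Relative viability is the nuclei count of treated wells divided by that of vehicle wells, and values are medians of duplicate plates.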
# HCC-366 = tested on: HCC-366
# Summary of the method: as §1
# NCI-H2228 = tested on: NCI-H2228
# Summary of the method: as §1
# NCI-H1944 = tested on: NCI-H1944
# Summary of the method: as §1
# NCI-H2126 = tested on: NCI-H2126
# Summary of the method: as §1
# NCI-H2009 = tested on: NCI-H2009
# Summary of the method: as §1
# ChaGo-K-1 = tested on: ChaGo-K-1
# Summary of the method: as §1
# HCC-78 = tested on: HCC-78
# Summary of the method: as §1
# A-427 = tested on: A-427
# Summary of the method: as §1
# NCI-H2405 = tested on: NCI-H2405
# Summary of the method: as §1
# ABC-1 = tested on: ABC-1
# Summary of the method: as §1
# NCI-H2023 = tested on: NCI-H2023
# Summary of the method: as §1
# NCI-H1993 = tested on: NCI-H1993
# Summary of the method: as §1
# NCI-H838 = tested on: NCI-H838
# Summary of the method: as §1
# NCI-H1734 = tested on: NCI-H1734
# Summary of the method: as §1
# EMC-BAC-2 = tested on: EMC-BAC-2
# Summary of the method: as §1
# NCI-H23 = tested on: NCI-H23
# Summary of the method: as §1
# SK-LU-1 = tested on: SK-LU-1
# Summary of the method: as §1
# HARA = tested on: HARA
# Summary of the method: as §1
# COR-L23 = tested on: COR-L23
# Summary of the method: as §1
# HCC-15 = tested on: HCC-15
# Summary of the method: as §1
# NCI-H1793 = tested on: NCI-H1793
# Summary of the method: as §1
# LC-2-ad = tested on: LC-2-ad
# Summary of the method: as §1
smiles,measurement,setting,value
CC1(C)CCC(c2ccc(Cl)cc2)=C(CN2CCN(c3ccc(C(=O)NS(=O)(=O)c4ccc(N[C@H](CCN5CCOCC5)CSc5ccccc5)c(S(=O)(=O)C(F)(F)F)c4)cc3)CC2)C1 [Navitoclax] + CC(=O)c1c(C)c2cnc(Nc3ccc(N4CCNCC4)cn3)nc2n(C2CCCC2)c1=O [Palbociclib] (partner 0.5 µM),relative viability,UMC-11; first compound 0.005 µM,0.388
same,relative viability,UMC-11; first compound 0.01581 µM,0.305
same,relative viability,UMC-11; first compound 0.05 µM,0.333
same,relative viability,UMC-11; first compound 0.1581 µM,0.322
same,relative viability,UMC-11; first compound 0.5 µM,0.319
same,relative viability,HCC-366; first compound 0.005 µM,0.355
same,relative viability,HCC-366; first compound 0.01581 µM,0.48
same,relative viability,HCC-366; first compound 0.1581 µM,0.35
same,relative viability,HCC-366; first compound 0.5 µM,0.34
same,relative viability,NCI-H2228; first compound 0.005 µM,0.915
same,relative viability,NCI-H2228; first compound 0.01581 µM,0.986
same,relative viability,NCI-H2228; first compound 0.1581 µM,0.703
same,relative viability,NCI-H2228; first compound 0.5 µM,0.687
same,relative viability,NCI-H1944; first compound 0.005 µM,0.345
same,relative viability,NCI-H1944; first compound 0.01581 µM,0.364
same,relative viability,NCI-H1944; first compound 0.1581 µM,0.3
same,relative viability,NCI-H1944; first compound 0.5 µM,0.341
same,relative viability,NCI-H2126; first compound 0.005 µM,0.35
same,relative viability,NCI-H2126; first compound 0.01581 µM,0.355
same,relative viability,NCI-H2126; first compound 0.05 µM,0.342
same,relative viability,NCI-H2126; first compound 0.1581 µM,0.303
same,relative viability,NCI-H2126; first compound 0.5 µM,0.366
same,relative viability,NCI-H2009; first compound 0.005 µM,0.186
same,relative viability,NCI-H2009; first compound 0.01581 µM,0.302
same,relative viability,NCI-H2009; first compound 0.05 µM,0.202
same,relative viability,NCI-H2009; first compound 0.1581 µM,0.255
same,relative viability,NCI-H2009; first compound 0.5 µM,0.222
same,relative viability,ChaGo-K-1; first compound 0.005 µM,0.971
same,relative viability,ChaGo-K-1; first compound 0.01581 µM,0.926
same,relative viability,ChaGo-K-1; first compound 0.05 µM,0.492
same,relative viability,ChaGo-K-1; first compound 0.1581 µM,0.903
same,relative viability,ChaGo-K-1; first compound 0.5 µM,0.954
same,relative viability,HCC-78; first compound 0.005 µM,0.509
same,relative viability,HCC-78; first compound 0.01581 µM,0.428
same,relative viability,HCC-78; first compound 0.05 µM,0.441
same,relative viability,HCC-78; first compound 0.1581 µM,0.448
same,relative viability,HCC-78; first compound 0.5 µM,0.489
same,relative viability,A-427; first compound 0.005 µM,0.502
same,relative viability,A-427; first compound 0.01581 µM,0.512
same,relative viability,A-427; first compound 0.05 µM,0.516
same,relative viability,A-427; first compound 0.1581 µM,0.514
same,relative viability,A-427; first compound 0.5 µM,0.53
same,relative viability,NCI-H2405; first compound 0.005 µM,0.501
same,relative viability,NCI-H2405; first compound 0.01581 µM,0.562
same,relative viability,NCI-H2405; first compound 0.05 µM,0.562
same,relative viability,NCI-H2405; first compound 0.1581 µM,0.511
same,relative viability,NCI-H2405; first compound 0.5 µM,0.506
same,relative viability,ABC-1; first compound 0.005 µM,0.896
same,relative viability,ABC-1; first compound 0.01581 µM,0.845
same,relative viability,ABC-1; first compound 0.05 µM,0.691
same,relative viability,ABC-1; first compound 0.1581 µM,0.747
same,relative viability,ABC-1; first compound 0.5 µM,0.639
same,relative viability,NCI-H2023; first compound 0.005 µM,0.421
same,relative viability,NCI-H2023; first compound 0.01581 µM,0.427
same,relative viability,NCI-H2023; first compound 0.05 µM,0.384
same,relative viability,NCI-H2023; first compound 0.1581 µM,0.401
same,relative viability,NCI-H2023; first compound 0.5 µM,0.439
same,relative viability,NCI-H1993; first compound 0.005 µM,0.7
same,relative viability,NCI-H1993; first compound 0.01581 µM,0.744
same,relative viability,NCI-H1993; first compound 0.05 µM,0.593
same,relative viability,NCI-H1993; first compound 0.1581 µM,0.749
same,relative viability,NCI-H1993; first compound 0.5 µM,0.653
same,relative viability,NCI-H838; first compound 0.005 µM,0.193
same,relative viability,NCI-H838; first compound 0.01581 µM,0.253
same,relative viability,NCI-H838; first compound 0.05 µM,0.177
same,relative viability,NCI-H838; first compound 0.1581 µM,0.209
same,relative viability,NCI-H838; first compound 0.5 µM,0.224
same,relative viability,NCI-H1734; first compound 0.005 µM,0.339
same,relative viability,NCI-H1734; first compound 0.01581 µM,0.374
same,relative viability,NCI-H1734; first compound 0.1581 µM,0.296
same,relative viability,NCI-H1734; first compound 0.5 µM,0.367
same,relative viability,EMC-BAC-2; first compound 0.005 µM,0.522
same,relative viability,EMC-BAC-2; first compound 0.01581 µM,0.533
same,relative viability,EMC-BAC-2; first compound 0.05 µM,0.532
same,relative viability,EMC-BAC-2; first compound 0.1581 µM,0.5
same,relative viability,EMC-BAC-2; first compound 0.5 µM,0.507
same,relative viability,NCI-H23; first compound 0.005 µM,0.518
same,relative viability,NCI-H23; first compound 0.01581 µM,0.53
same,relative viability,NCI-H23; first compound 0.05 µM,0.496
same,relative viability,NCI-H23; first compound 0.1581 µM,0.446
same,relative viability,NCI-H23; first compound 0.5 µM,0.534
same,relative viability,SK-LU-1; first compound 0.005 µM,0.396
same,relative viability,SK-LU-1; first compound 0.01581 µM,0.508
same,relative viability,SK-LU-1; first compound 0.05 µM,0.337
same,relative viability,SK-LU-1; first compound 0.1581 µM,0.384
same,relative viability,SK-LU-1; first compound 0.5 µM,0.414
same,relative viability,HARA; first compound 0.005 µM,0.236
same,relative viability,HARA; first compound 0.01581 µM,0.271
same,relative viability,HARA; first compound 0.05 µM,0.243
same,relative viability,HARA; first compound 0.1581 µM,0.191
same,relative viability,HARA; first compound 0.5 µM,0.216
same,relative viability,COR-L23; first compound 0.005 µM,0.36
same,relative viability,COR-L23; first compound 0.01581 µM,0.309
same,relative viability,COR-L23; first compound 0.05 µM,0.28
same,relative viability,COR-L23; first compound 0.1581 µM,0.331
same,relative viability,COR-L23; first compound 0.5 µM,0.278
same,relative viability,HCC-15; first compound 0.005 µM,0.738
same,relative viability,HCC-15; first compound 0.01581 µM,0.77
same,relative viability,HCC-15; first compound 0.05 µM,0.655
same,relative viability,HCC-15; first compound 0.1581 µM,0.773
same,relative viability,HCC-15; first compound 0.5 µM,0.687
same,relative viability,NCI-H1793; first compound 0.005 µM,0.312
same,relative viability,NCI-H1793; first compound 0.01581 µM,0.281
same,relative viability,NCI-H1793; first compound 0.1581 µM,0.336
same,relative viability,NCI-H1793; first compound 0.5 µM,0.295
same,relative viability,LC-2-ad; first compound 0.005 µM,0.505
same,relative viability,LC-2-ad; first compound 0.01581 µM,0.452
same,relative viability,LC-2-ad; first compound 0.05 µM,0.456
same,relative viability,LC-2-ad; first compound 0.1581 µM,0.413
same,relative viability,LC-2-ad; first compound 0.5 µM,0.412
